# Earlier results, collected in patent US20100105640A1, “Aromatase Inhibitors for Emergency Contraception” (priority 2005, published 2010).
# Details: Yuzpe n = 979, Levonorgestrel n = 977
smiles,measurement,setting,value
"C#C[C@]1(O)CC[C@H]2[C@@H]3CCC4=CC(=O)CC[C@@H]4[C@H]3CC[C@@]21CC [Levonorgestrel, levonorgestrel]",Percent with symptom (95% confidence interval): Breast tenderness,,10.8%
same,Percent with symptom (95% confidence interval): Dizziness,,11.2%
same,Percent with symptom (95% confidence interval): Fatigue,,16.9%
same,Percent with symptom (95% confidence interval): Headache,,16.8%
same,Percent with symptom (95% confidence interval): Low abdominal pain,,17.6%
same,Percent with symptom (95% confidence interval): Nausea,,23.1%
same,Percent with symptom (95% confidence interval): Vomiting,,5.6%
same,Percent with symptom (95% confidence interval): All other adverse effects,mostly diarrhea and some irregular bleeding or spotting,13.5%
